Measurements as given in ChEMBL document CHEMBL3885861, “Open TG-GATES”.

Species on record: Rattus norvegicus
Test: Open TG-GATES - Regimen: Single
Assay type: toxicity, organism-based, Sprague-Dawley
Set-up: regimen Single, gender Male, age 6 weeks
Details: in vivo, po, route gavage; for Bas / Eos / Ht / Lym / MCH / Mono / Neu / RBC / Ret: tissue Blood; for KIDNEY_L / KIDNEY_R / KIDNEY_TOTAL: tissue Kidney; for ALP / ALT / AST / CRE / DBIL / IP / K / LDH / Na / PL / RALB / TBIL / TC / TG / TP / gamma-GTP / Ca: tissue Plasma; for LIVER: tissue Liver
[1] = 0 mg/kg, 3 h, dose level Control
[2] = 0 mg/kg, 6 h, dose level Control
[3] = 0 mg/kg, 9 h, dose level Control
[4] = 0 mg/kg, 24 h, dose level Control
[5] = 200 mg/kg, 24 h, dose level Low

COc1cc2ncnc(Nc3ccc(F)c(Cl)c3)c2cc1OCCCN1CCOCC1 [GEFITINIB]
TERMINAL_BW [1]: 216 g
Bas [1]: 0%
Eos [1]: 0.8%
Ht [1]: 39.6%
Lym [1]: 74.2%
MCH [1]: 21.5 pg
Mono [1]: 2.6%
Neu [1]: 21.8%
RBC [1]: 610.2 x10_4/ul
Ret [1]: 9.3%
KIDNEY_L [1]: 0.9 g
KIDNEY_R [1]: 0.9 g
KIDNEY_TOTAL [1]: 1.8 g
ALP [1]: 1581.8 IU/L
ALT [1]: 42.2 IU/L
AST [1]: 73.2 IU/L
CRE [1]: 0.2 mg/dL
DBIL [1]: 0 mg/dL
IP [1]: 8.2 mg/dL
K [1]: 4.1 meq/L
LDH [1]: 183.2 IU/L
Na [1]: 143.1 meq/L
PL [1]: 148.6 mg/dL
RALB [1]: 3.9 g/dL
TBIL [1]: 0.02 mg/dL
TC [1]: 85.4 mg/dL
TG [1]: 64.2 mg/dL
TP [1]: 5.5 g/dL
gamma-GTP [1]: 1.1 IU/L
TERMINAL_BW [2]: 212.6 g
Bas [2]: 0%
Eos [2]: 0.8%
Ht [2]: 40.1%
Lym [2]: 83.6%
MCH [2]: 21.4 pg
Mono [2]: 2.4%
Neu [2]: 12.8%
RBC [2]: 623.6 x10_4/ul
Ret [2]: 9.7%
KIDNEY_L [2]: 0.9 g
KIDNEY_R [2]: 1 g
KIDNEY_TOTAL [2]: 1.9 g
LIVER [2]: 9.6 g
ALP [2]: 1643.4 IU/L
ALT [2]: 41.2 IU/L
AST [2]: 71 IU/L
CRE [2]: 0.1 mg/dL
Ca [2]: 10.6 mg/dL
DBIL [2]: 0.002 mg/dL
IP [2]: 9.6 mg/dL
K [2]: 4.2 meq/L
LDH [2]: 200.6 IU/L
Na [2]: 142.5 meq/L
PL [2]: 158.8 mg/dL
RALB [2]: 3.9 g/dL
TBIL [2]: 0.018 mg/dL
TC [2]: 90.8 mg/dL
TG [2]: 78.2 mg/dL
TP [2]: 5.4 g/dL
gamma-GTP [2]: 1 IU/L
TERMINAL_BW [3]: 210 g
Bas [3]: 0%
Eos [3]: 1%
Ht [3]: 38.5%
Lym [3]: 77.6%
MCH [3]: 21.3 pg
Mono [3]: 3.4%
Neu [3]: 17.6%
RBC [3]: 601.2 x10_4/ul
Ret [3]: 9.4%
KIDNEY_L [3]: 1 g
KIDNEY_R [3]: 0.9 g
KIDNEY_TOTAL [3]: 1.9 g
LIVER [3]: 9 g
ALP [3]: 1562.4 IU/L
ALT [3]: 35.2 IU/L
AST [3]: 67.2 IU/L
CRE [3]: 0.1 mg/dL
DBIL [3]: 0.004 mg/dL
IP [3]: 10 mg/dL
K [3]: 4.2 meq/L
LDH [3]: 169 IU/L
Na [3]: 143.4 meq/L
PL [3]: 139.6 mg/dL
RALB [3]: 3.9 g/dL
TBIL [3]: 0.022 mg/dL
TC [3]: 81.6 mg/dL
TG [3]: 67.3 mg/dL
TP [3]: 5.4 g/dL
gamma-GTP [3]: 1 IU/L
TERMINAL_BW [4]: 223.4 g
Bas [4]: 0%
Eos [4]: 1%
Ht [4]: 39.9%
Lym [4]: 78.5%
MCH [4]: 20.8 pg
Mono [4]: 3.5%
Neu [4]: 16%
RBC [4]: 619.8 x10_4/ul
Ret [4]: 8.2%
KIDNEY_L [4]: 1 g
KIDNEY_R [4]: 1 g
KIDNEY_TOTAL [4]: 1.9 g
LIVER [4]: 10.6 g
ALT [4]: 44.5 IU/L
AST [4]: 75.8 IU/L
CRE [4]: 0.2 mg/dL
Ca [4]: 10.8 mg/dL
DBIL [4]: 0 mg/dL
IP [4]: 7.4 mg/dL
K [4]: 4.4 meq/L
LDH [4]: 145.5 IU/L
Na [4]: 142.1 meq/L
PL [4]: 149.5 mg/dL
RALB [4]: 4.2 g/dL
TBIL [4]: 0.01 mg/dL
TC [4]: 79 mg/dL
TG [4]: 122.7 mg/dL
TP [4]: 5.7 g/dL
gamma-GTP [4]: 1.3 IU/L
TERMINAL_BW (200 mg/kg, 3 h, dose level Low): 214.5 g
Bas (200 mg/kg, 3 h, dose level Low): 0%
Eos (200 mg/kg, 3 h, dose level Low): 0.8%
Ht (200 mg/kg, 3 h, dose level Low): 36.1%
Lym (200 mg/kg, 3 h, dose level Low): 74.4%
MCH (200 mg/kg, 3 h, dose level Low): 20.9 pg
Mono (200 mg/kg, 3 h, dose level Low): 3%
Neu (200 mg/kg, 3 h, dose level Low): 21.4%
RBC (200 mg/kg, 3 h, dose level Low): 577.2 x10_4/ul
Ret (200 mg/kg, 3 h, dose level Low): 8.9%
KIDNEY_L (200 mg/kg, 3 h, dose level Low): 1 g
KIDNEY_R (200 mg/kg, 3 h, dose level Low): 1 g
KIDNEY_TOTAL (200 mg/kg, 3 h, dose level Low): 2 g
LIVER (200 mg/kg, 3 h, dose level Low): 9.2 g
ALP (200 mg/kg, 3 h, dose level Low): 1618.4 IU/L
ALT (200 mg/kg, 3 h, dose level Low): 52 IU/L
AST (200 mg/kg, 3 h, dose level Low): 82.8 IU/L
CRE (200 mg/kg, 3 h, dose level Low): 0.1 mg/dL
Ca (200 mg/kg, 3 h, dose level Low): 9.9 mg/dL
DBIL (200 mg/kg, 3 h, dose level Low): 0.016 mg/dL
IP (200 mg/kg, 3 h, dose level Low): 9.2 mg/dL
K (200 mg/kg, 3 h, dose level Low): 4.1 meq/L
LDH (200 mg/kg, 3 h, dose level Low): 220.4 IU/L
Na (200 mg/kg, 3 h, dose level Low): 141.6 meq/L
PL (200 mg/kg, 3 h, dose level Low): 147.4 mg/dL
RALB (200 mg/kg, 3 h, dose level Low): 3.8 g/dL
TBIL (200 mg/kg, 3 h, dose level Low): 0.066 mg/dL
TC (200 mg/kg, 3 h, dose level Low): 97 mg/dL
TG (200 mg/kg, 3 h, dose level Low): 39.9 mg/dL
TP (200 mg/kg, 3 h, dose level Low): 5.3 g/dL
gamma-GTP (200 mg/kg, 3 h, dose level Low): 0.9 IU/L
TERMINAL_BW (200 mg/kg, 6 h, dose level Low): 210.7 g
Bas (200 mg/kg, 6 h, dose level Low): 0%
Eos (200 mg/kg, 6 h, dose level Low): 0.6%
Ht (200 mg/kg, 6 h, dose level Low): 37.3%
Lym (200 mg/kg, 6 h, dose level Low): 79.4%
MCH (200 mg/kg, 6 h, dose level Low): 21.5 pg
Mono (200 mg/kg, 6 h, dose level Low): 3.6%
Neu (200 mg/kg, 6 h, dose level Low): 15.8%
RBC (200 mg/kg, 6 h, dose level Low): 579.2 x10_4/ul
Ret (200 mg/kg, 6 h, dose level Low): 9.1%
KIDNEY_L (200 mg/kg, 6 h, dose level Low): 0.9 g
KIDNEY_R (200 mg/kg, 6 h, dose level Low): 0.9 g
KIDNEY_TOTAL (200 mg/kg, 6 h, dose level Low): 1.9 g
LIVER (200 mg/kg, 6 h, dose level Low): 8.9 g
ALP (200 mg/kg, 6 h, dose level Low): 1407.4 IU/L
ALT (200 mg/kg, 6 h, dose level Low): 53.8 IU/L
AST (200 mg/kg, 6 h, dose level Low): 78.6 IU/L
CRE (200 mg/kg, 6 h, dose level Low): 0.2 mg/dL
Ca (200 mg/kg, 6 h, dose level Low): 9.9 mg/dL
DBIL (200 mg/kg, 6 h, dose level Low): 0.018 mg/dL
IP (200 mg/kg, 6 h, dose level Low): 9.6 mg/dL
K (200 mg/kg, 6 h, dose level Low): 4 meq/L
LDH (200 mg/kg, 6 h, dose level Low): 142.6 IU/L
Na (200 mg/kg, 6 h, dose level Low): 141.5 meq/L
PL (200 mg/kg, 6 h, dose level Low): 142.8 mg/dL
RALB (200 mg/kg, 6 h, dose level Low): 3.9 g/dL
TBIL (200 mg/kg, 6 h, dose level Low): 0.076 mg/dL
TC (200 mg/kg, 6 h, dose level Low): 93 mg/dL
TG (200 mg/kg, 6 h, dose level Low): 31.4 mg/dL
TP (200 mg/kg, 6 h, dose level Low): 5.4 g/dL
gamma-GTP (200 mg/kg, 6 h, dose level Low): 0.9 IU/L
TERMINAL_BW (200 mg/kg, 9 h, dose level Low): 210 g
Bas (200 mg/kg, 9 h, dose level Low): 0%
Eos (200 mg/kg, 9 h, dose level Low): 0.6%
Ht (200 mg/kg, 9 h, dose level Low): 38.5%
Lym (200 mg/kg, 9 h, dose level Low): 78.4%
MCH (200 mg/kg, 9 h, dose level Low): 20.9 pg
Mono (200 mg/kg, 9 h, dose level Low): 3.2%
Neu (200 mg/kg, 9 h, dose level Low): 17.2%
RBC (200 mg/kg, 9 h, dose level Low): 611 x10_4/ul
Ret (200 mg/kg, 9 h, dose level Low): 8.8%
KIDNEY_L (200 mg/kg, 9 h, dose level Low): 0.9 g
KIDNEY_R (200 mg/kg, 9 h, dose level Low): 0.9 g
KIDNEY_TOTAL (200 mg/kg, 9 h, dose level Low): 1.8 g
LIVER (200 mg/kg, 9 h, dose level Low): 8.6 g
ALP (200 mg/kg, 9 h, dose level Low): 1488 IU/L
ALT (200 mg/kg, 9 h, dose level Low): 48.2 IU/L
AST (200 mg/kg, 9 h, dose level Low): 78.4 IU/L
CRE (200 mg/kg, 9 h, dose level Low): 0.2 mg/dL
Ca (200 mg/kg, 9 h, dose level Low): 9.9 mg/dL
DBIL (200 mg/kg, 9 h, dose level Low): 0.01 mg/dL
IP (200 mg/kg, 9 h, dose level Low): 9.5 mg/dL
K (200 mg/kg, 9 h, dose level Low): 4.3 meq/L
Na (200 mg/kg, 9 h, dose level Low): 143.6 meq/L
PL (200 mg/kg, 9 h, dose level Low): 146 mg/dL
RALB (200 mg/kg, 9 h, dose level Low): 3.8 g/dL
TBIL (200 mg/kg, 9 h, dose level Low): 0.048 mg/dL
TC (200 mg/kg, 9 h, dose level Low): 93.6 mg/dL
TG (200 mg/kg, 9 h, dose level Low): 39 mg/dL
TP (200 mg/kg, 9 h, dose level Low): 5.4 g/dL
gamma-GTP (200 mg/kg, 9 h, dose level Low): 1.1 IU/L
TERMINAL_BW [5]: 215.5 g
Bas [5]: 0%
Eos [5]: 0.8%
Ht [5]: 40.7%
Lym [5]: 66%
MCH [5]: 20.6 pg
Mono [5]: 4%
Neu [5]: 28.6%
RBC [5]: 635 x10_4/ul
Ret [5]: 8.2%
KIDNEY_L [5]: 1 g
KIDNEY_R [5]: 1 g
KIDNEY_TOTAL [5]: 2 g
LIVER [5]: 9.5 g
ALP [5]: 1548.6 IU/L
ALT [5]: 39.6 IU/L
AST [5]: 72.8 IU/L
CRE [5]: 0.2 mg/dL
Ca [5]: 10.7 mg/dL
DBIL [5]: 0.004 mg/dL
IP [5]: 8.6 mg/dL
K [5]: 4.4 meq/L
LDH [5]: 215.2 IU/L
Na [5]: 142.9 meq/L
PL [5]: 166 mg/dL
RALB [5]: 4 g/dL
TBIL [5]: 0.022 mg/dL
TG [5]: 69.4 mg/dL
TP [5]: 5.5 g/dL
gamma-GTP [5]: 1.2 IU/L
TERMINAL_BW (600 mg/kg, 3 h, dose level Middle): 215 g
